Our source for the IC50 values is patent publication US9580437B2, “Triazolopyrimidine compounds and uses thereof” (Novartis AG, priority 2014, dated 2017).

For one test, the target named is EED (1-441)-His protein (Homo sapiens (Human), UniProt O75530). The test can be described thus: EED-H3K27Me3 peptide competition binding assay by AlphaScreen. Conditions: read-out: (a) IC50 EED Alphascreen binding Qualified. The source says: EED-H3K27Me3 peptide competition binding assay by AlphaScreen (α-screen)
For orientation: Alpha assays give light when donor and acceptor beads are brought close together.

The target in test [1] is wild type PRC2 (wtPRC2) complex (Homo sapiens (Human), UniProt O75530). Kind of test: EED LC-MS assay. In kind it is biochemical. Particulars: read-out: (b) IC50 EED LC-MS Qualified. On the procedure:
A 6 μL solution of 3 μM of the peptide substrate H3K27Me0 (histone H3[21-44]-biotin) in reaction buffer was added to initiate each reaction. […] ELISA (H3K27 Methylation) Assay

EED (1-441)-His protein, sequence (O75530 whole entry): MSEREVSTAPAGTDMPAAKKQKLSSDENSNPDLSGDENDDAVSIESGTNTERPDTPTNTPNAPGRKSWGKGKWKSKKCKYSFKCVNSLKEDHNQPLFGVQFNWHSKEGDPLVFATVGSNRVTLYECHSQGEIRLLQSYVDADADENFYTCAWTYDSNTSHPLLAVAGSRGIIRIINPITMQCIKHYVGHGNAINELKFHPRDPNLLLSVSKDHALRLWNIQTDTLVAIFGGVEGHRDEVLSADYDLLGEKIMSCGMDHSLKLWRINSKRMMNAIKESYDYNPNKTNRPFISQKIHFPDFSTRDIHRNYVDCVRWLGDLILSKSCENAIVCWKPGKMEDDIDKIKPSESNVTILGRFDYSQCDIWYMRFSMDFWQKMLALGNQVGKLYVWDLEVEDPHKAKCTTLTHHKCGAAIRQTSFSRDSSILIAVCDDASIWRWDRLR
wild type PRC2 (wtPRC2) complex, sequence (O75530 whole entry): as above
wild type PRC2 (wtPRC2) complex, sequence (Q15910 whole entry partner): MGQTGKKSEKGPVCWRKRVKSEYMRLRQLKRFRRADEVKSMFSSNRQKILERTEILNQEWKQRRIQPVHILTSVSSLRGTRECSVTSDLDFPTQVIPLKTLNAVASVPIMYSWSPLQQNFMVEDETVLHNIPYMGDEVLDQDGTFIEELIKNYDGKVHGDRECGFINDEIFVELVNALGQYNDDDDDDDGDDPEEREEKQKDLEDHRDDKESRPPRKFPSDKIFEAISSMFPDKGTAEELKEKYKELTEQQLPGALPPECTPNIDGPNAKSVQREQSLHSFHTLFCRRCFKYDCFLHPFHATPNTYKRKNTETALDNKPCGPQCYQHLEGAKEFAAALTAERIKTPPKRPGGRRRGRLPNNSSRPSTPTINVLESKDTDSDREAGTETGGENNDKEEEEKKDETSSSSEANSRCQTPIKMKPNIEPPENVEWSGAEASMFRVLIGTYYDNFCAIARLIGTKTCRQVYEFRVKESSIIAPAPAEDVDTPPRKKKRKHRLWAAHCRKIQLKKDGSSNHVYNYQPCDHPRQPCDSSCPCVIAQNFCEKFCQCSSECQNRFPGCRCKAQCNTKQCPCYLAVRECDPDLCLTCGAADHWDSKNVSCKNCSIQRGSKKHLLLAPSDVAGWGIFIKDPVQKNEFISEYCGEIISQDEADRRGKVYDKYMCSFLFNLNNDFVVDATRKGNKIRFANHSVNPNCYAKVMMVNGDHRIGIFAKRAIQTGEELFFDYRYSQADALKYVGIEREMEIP
wild type PRC2 (wtPRC2) complex, sequence (Q15022 whole entry partner): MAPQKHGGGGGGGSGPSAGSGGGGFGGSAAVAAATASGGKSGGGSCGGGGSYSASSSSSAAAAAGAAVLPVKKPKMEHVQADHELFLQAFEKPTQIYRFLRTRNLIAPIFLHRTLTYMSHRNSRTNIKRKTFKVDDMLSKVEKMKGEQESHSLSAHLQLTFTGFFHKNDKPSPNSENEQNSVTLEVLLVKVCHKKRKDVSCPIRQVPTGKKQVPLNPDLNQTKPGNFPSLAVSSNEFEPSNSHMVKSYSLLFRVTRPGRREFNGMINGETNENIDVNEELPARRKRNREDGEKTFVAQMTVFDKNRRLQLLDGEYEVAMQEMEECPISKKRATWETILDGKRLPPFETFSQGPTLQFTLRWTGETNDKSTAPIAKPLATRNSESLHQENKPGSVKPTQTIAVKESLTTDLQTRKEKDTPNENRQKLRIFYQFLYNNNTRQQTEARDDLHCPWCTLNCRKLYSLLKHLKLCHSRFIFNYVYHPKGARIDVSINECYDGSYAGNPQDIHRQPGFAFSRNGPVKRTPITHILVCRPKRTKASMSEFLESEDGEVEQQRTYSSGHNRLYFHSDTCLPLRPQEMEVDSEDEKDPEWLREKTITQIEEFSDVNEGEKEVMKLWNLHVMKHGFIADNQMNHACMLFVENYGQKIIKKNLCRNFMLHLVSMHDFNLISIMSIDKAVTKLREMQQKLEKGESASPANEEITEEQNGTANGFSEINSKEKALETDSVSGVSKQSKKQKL

`Cc1cc(-c2cnc(NCc3c(F)ccc4c3CCO4)n3cnnc23)n(C)n1` [Example 1, 8-(1,3-dimethyl-1H-pyrazol-5-yl)-N-((5-fluoro-2,3-dihydrobenzofuran-4-yl)methyl)-[1,2,4]triazolo[4,3-c]pyrimidin-5-amine]: the figures for the IC50 (at EED (1-441)-His protein; in test [1]) were 4.1 nM and 8.2 nM, respectively.
Regarding `Cc1ncc(-c2cnc(NCc3c(F)ccc4c3CCO4)n3cnnc23)c(C)n1` [Example 3, 8-(2,4-Dimethylpyrimidin-5-yl)-N-((5-fluoro-2,3-dihydrobenzofuran-4-yl)methyl)-[1,2,4]triazolo[4,3-c]pyrimidin-5-amine], the IC50 (usually the midpoint of a concentration-inhibition curve) at EED (1-441)-His protein was determined as 3.8 nM; in test [1], 6.4 nM.
`Cc1nn(C(C)C)cc1-c1cnc(NCc2c(F)ccc3c2CCO3)n2cnnc12` [Example 4, N-((5-Fluoro-2,3-dihydrobenzofuran-4-yl)methyl)-8-(1-isopropyl-3-methyl-1H-pyrazol-4-yl)-[1,2,4]triazolo[4,3-c]pyrimidin-5-amine]: the half-maximal inhibitory concentration (IC50) at EED (1-441)-His protein worked out at 3.2 nM; in test [1], 3.9 nM.
For the molecule `COc1cc(C)c(-c2cnc(NCc3c(F)ccc4c3CCO4)n3cnnc23)cn1` [Example 5, N-((5-fluoro-2,3-dihydrobenzofuran-4-yl)methyl)-8-(6-methoxy-4-methylpyridin-3-yl)-[1,2,4]triazolo[4,3-c]pyrimidin-5-amine], the concentration for half-maximal inhibition (IC50) at EED (1-441)-His protein came to 4.8 nM; in test [1], 9.7 nM.
As to `Cc1nc(C2CC2)ccc1-c1cnc(NCc2c(F)ccc3c2CCO3)n2cnnc12` [Example 6, 8-(6-Cyclopropyl-2-methylpyridin-3-yl)-N-((5-fluoro-2,3-dihydrobenzofuran-4-yl)methyl)-[1,2,4]triazolo[4,3-c]pyrimidin-5-amine], the 50% inhibitory concentration (IC50) worked out at 5.2 nM on EED (1-441)-His protein and 7.7 nM in test [1].
Take `OCc1ncccc1-c1cnc(NCc2c(F)ccc3c2CCO3)n2cnnc12` [Example 7, (3-(5-(((5-fluoro-2,3-dihydrobenzofuran-4-yl)methyl)amino)-[1,2,4]triazolo[4,3-c]pyrimidin-8-yl)pyridin-2-yl)methanol]: the values for the IC50 (on EED (1-441)-His protein; in test [1]) were 4.8 nM and 9.3 nM, respectively.
For `Cc1nc(C2CC2)ncc1-c1cnc(NCc2c(F)ccc3c2CCO3)n2cnnc12` [Example 8, 8-(2-cyclopropyl-4-methylpyrimidin-5-yl)-N-((5-fluoro-2,3-dihydrobenzofuran-4-yl)methyl)-[1,2,4]triazolo[4,3-c]pyrimidin-5-amine], the 50% inhibitory concentration (IC50) on EED (1-441)-His protein was 4.9 nM; in test [1], 7.2 nM.
As to `Cc1nc(OC(C)C)ncc1-c1cnc(NCc2c(F)ccc3c2CCO3)n2cnnc12` [Example 9, N-((5-fluoro-2,3-dihydrobenzofuran-4-yl)methyl)-8-(2-isopropoxy-4-methylpyrimidin-5-yl)-[1,2,4]triazolo[4,3-c]pyrimidin-5-amine], the IC50 at EED (1-441)-His protein was 4.1 nM; in test [1], 7.9 nM.
The like results for `[O-][n+]1cccc(-c2cnc(NCc3c(F)ccc4c3CCO4)n3cnnc23)c1` [Example 10, 3-(5-(((5-fluoro-2,3-dihydrobenzofuran-4-yl)methyl)amino)-[1,2,4]triazolo[4,3-c]pyrimidin-8-yl)pyridine 1-oxide] were, in that order, 7.3 nM and 13.8 nM.
With `CN(C)Cc1ccc(-c2cnc(NCc3cccc4c3CCO4)n3cnnc23)cc1` [Example 11, N-((2,3-dihydrobenzofuran-4-yl)methyl)-8-(4-((dimethylamino)methyl)phenyl)-[1,2,4]triazolo[4,3-c]pyrimidin-5-amine], the concentration for half-maximal inhibition (IC50) amounted to 6.9 nM on EED (1-441)-His protein and 20 nM in test [1].
Turning to `CS(=O)(=O)c1ccc(-c2cnc(NCc3cccc4c3CCO4)n3cnnc23)cc1` [Example 12, N-((2,3-dihydrobenzofuran-4-yl)methyl)-8-(4-(methylsulfonyl)phenyl)-[1,2,4]triazolo[4,3-c]pyrimidin-5-amine], the concentration for half-maximal inhibition (IC50) was found to be 7.9 nM at EED (1-441)-His protein and 15.9 nM in test [1].
For `c1ccc(-c2cnc(NCc3cccc4c3CCO4)n3cnnc23)cc1` [Example 13, N-((2,3-dihydrobenzofuran-4-yl)methyl)-8-phenyl-[1,2,4]triazolo[4,3-c]pyrimidin-5-amine], the values for the half-inhibitory concentration (IC50) (at EED (1-441)-His protein; in test [1]) were 53.6 nM and 47.7 nM, respectively.
As for `CC(c1ccc(-c2cnc(NCc3cccc4c3CCO4)n3cnnc23)cc1)N1CCCC1` (stereo not drawn) [Example 14, N-((2,3-dihydrobenzofuran-4-yl)methyl)-8-(4-(1-(pyrrolidin-1-yl)ethyl)phenyl)-[1,2,4]triazolo[4,3-c]pyrimidin-5-amine], the values for the IC50 (on EED (1-441)-His protein; in test [1]) were 7.8 nM and 12.8 nM, respectively.
Turning to `CN(C)S(=O)(=O)c1ccc(-c2cnc(NCc3cccc4c3CCO4)n3cnnc23)cc1` [Example 15, 4-(5-(((2,3-dihydrobenzofuran-4-yl)methyl)amino)-[1,2,4]triazolo[4,3-c]pyrimidin-8-yl)-N,N-dimethylbenzenesulfonamide], the IC50 was 12.8 nM on EED (1-441)-His protein and 20.6 nM in test [1].
The like results for `c1cncc(-c2cnc(NCc3cccc4c3CCO4)n3cnnc23)c1` [Example 16, N-((2,3-dihydrobenzofuran-4-yl)methyl)-8-(pyridin-3-yl)-[1,2,4]triazolo[4,3-c]pyrimidin-5-amine] were, in that order, 10.8 nM and 24 nM.
Turning to `CN1CCN(c2cc(-c3cnc(NCc4cccc5c4CCO5)n4cnnc34)ccn2)CC1` [Example 18, N-((2,3-dihydrobenzofuran-4-yl)methyl)-8-(2-(4-methylpiperazin-1-yl)pyridin-4-yl)-[1,2,4]triazolo[4,3-c]pyrimidin-5-amine], the figures for the half-inhibitory concentration (IC50) (at EED (1-441)-His protein; in test [1]) were 18.5 nM and 27.9 nM, respectively.
The like results for `CS(=O)(=O)Nc1ccc(-c2cnc(NCc3cccc4c3CCO4)n3cnnc23)cc1` [Example 19, N-(4-(5-(((2,3-dihydrobenzofuran-4-yl)methyl)amino)-[1,2,4]triazolo[4,3-c]pyrimidin-8-yl)phenyl)methanesulfonamide] were, in that order, 18.9 nM and 19.2 nM.
The like results for `CN1CCN(c2ccc(-c3cnc(NCc4cccc5c4CCO5)n4cnnc34)cn2)CC1` [Example 20, N-((2,3-dihydrobenzofuran-4-yl)methyl)-8-(6-(4-methylpiperazin-1-yl)pyridin-3-yl)-[1,2,4]triazolo[4,3-c]pyrimidin-5-amine] were, in that order, 14.4 nM and 17.1 nM.
Consider `COc1ccc(-c2cnc(NCc3cccc4c3CCO4)n3cnnc23)cn1` [Example 21, N-((2,3-dihydrobenzofuran-4-yl)methyl)-8-(6-methoxypyridin-3-yl)-[1,2,4]triazolo[4,3-c]pyrimidin-5-amine], for which the 50% inhibitory concentration (IC50) at EED (1-441)-His protein worked out at 25.2 nM; in test [1], 26 nM.
Regarding `CC1Cc2c(CNc3ncc(-c4ccc(CN(C)C)cc4)c4nncn34)cccc2O1` (stereo not drawn) [Example 22, 8-(4-((dimethylamino)methyl)phenyl)-N-((2-methyl-2,3-dihydrobenzofuran-4-yl)methyl)-[1,2,4]triazolo[4,3-c]pyrimidin-5-amine], the IC50 at EED (1-441)-His protein turned out to be 1980 nM; in test [1] it was 1820 nM.
On to `CN(C)Cc1ccc(-c2cnc(NCc3c(F)ccc4c3CCO4)n3cnnc23)cc1` [Example 23, 8-(4-((dimethylamino)methyl)phenyl)-N-((5-fluoro-2,3-dihydrobenzofuran-4-yl)methyl)-[1,2,4]triazolo[4,3-c]pyrimidin-5-amine], for which the results for the IC50 (at EED (1-441)-His protein; in test [1]) were 31.1 nM and 25.7 nM, respectively.
Take `Cc1nn(C)c(C)c1-c1cnc(NCc2cccc3c2CCO3)n2cnnc12` [Example 24, N-((2,3-dihydrobenzofuran-4-yl)methyl)-8-(1,3,5-trimethyl-1H-pyrazol-4-yl)-[1,2,4]triazolo[4,3-c]pyrimidin-5-amine]: the IC50 was 30.4 nM on EED (1-441)-His protein and 37 nM in test [1].
The like results for `Cn1cc(-c2cnc(NCc3cccc4c3CCO4)n3cnnc23)cn1` [Example 25, N-((2,3-dihydrobenzofuran-4-yl)methyl)-8-(1-methyl-1H-pyrazol-4-yl)-[1,2,4]triazolo[4,3-c]pyrimidin-5-amine] were, in that order, 30.7 nM and 44.9 nM.
Turning to `CS(=O)(=O)c1ccc(-c2cnc(NCc3cccc4c3CCO4)n3cnnc23)c(F)c1` [Example 26, N-((2,3-dihydrobenzofuran-4-yl)methyl)-8-(2-fluoro-4-(methylsulfonyl)phenyl)-[1,2,4]triazolo[4,3-c]pyrimidin-5-amine], the IC50 at EED (1-441)-His protein is 9.9 nM; in test [1], 17.1 nM.
Consider `CS(=O)(=O)c1cccc(-c2cnc(NCc3cccc4c3CCO4)n3cnnc23)c1` [Example 27, N-((2,3-dihydrobenzofuran-4-yl)methyl)-8-(3-(methylsulfonyl)phenyl)-[1,2,4]triazolo[4,3-c]pyrimidin-5-amine], for which the results for the 50% inhibitory concentration (IC50) (on EED (1-441)-His protein; in test [1]) were 19.9 nM and 47.2 nM, respectively.
In the case of `CS(=O)(=O)c1ccc(-c2cnc(NCc3cccc4c3CCO4)n3cnnc23)cn1` [Example 28, N-((2,3-dihydrobenzofuran-4-yl)methyl)-8-(6-(methylsulfonyl)pyridin-3-yl)-[1,2,4]triazolo[4,3-c]pyrimidin-5-amine], the half-maximal inhibitory concentration (IC50) at EED (1-441)-His protein was found to be 11.1 nM; in test [1], 27.6 nM.
As to `O=S(=O)(c1ccc(-c2cnc(NCc3cccc4c3CCO4)n3cnnc23)cc1)C1CCNCC1` [Example 29, N-((2,3-dihydrobenzofuran-4-yl)methyl)-8-(4-(piperidin-4-ylsulfonyl)phenyl)-[1,2,4]triazolo[4,3-c]pyrimidin-5-amine], the IC50 at EED (1-441)-His protein is 8.1 nM; in test [1], 14.5 nM.
With `Cc1nn(C)cc1-c1cnc(NCc2cccc3c2CCO3)n2cnnc12` [Example 30, N-((2,3-dihydrobenzofuran-4-yl)methyl)-8-(1,3-dimethyl-1H-pyrazol-4-yl)-[1,2,4]triazolo[4,3-c]pyrimidin-5-amine], the IC50 at EED (1-441)-His protein is 5.3 nM; in test [1], 24.8 nM.
For the molecule `Cc1ncccc1-c1cnc(NCc2c(F)ccc3occc23)n2cnnc12` [Example 207, N-((5-fluorobenzofuran-4-yl)methyl)-8-(2-methylpyridin-3-yl)-[1,2,4]triazolo[4,3-c]pyrimidin-5-amine], the IC50 in test [1] was 182 nM.
